One assay has as its target T1, human DHODH (Homo sapiens, UniProt Q02127).
T1 construct: purchased Proteros PR-0044
The assay can be described thus: DHODH enzymatic assay (DCIP absorbance, end-point). Type of assay: biochemical. The settings on record: purified human DHODH, DCIP as final electron acceptor, end-point mode; read-out: hDHODH IC50. On the procedure:
In vitro Assay: DHODH enzymatic assay
To detect DHODH enzyme activities, dichloroindophenol (DCIP) is added as the final electron acceptor in the assay. DCIP can accept electrons from the reduced coenzyme Q generated in the assay, or from dihydroorotate (DHO) via FMN by binding presumably to the ubiquinone pocket. […] The assay buffer contained […], pH 7.5, 150 mM NaCl, 0.5 mM EDTA, and 0.1% Triton X-100 in MilliQ water. Substrate consisting of 20 mM DHO, 5 mM CoQ6, and 1 mM DCIP in assay buffer, initiates the reaction. […] Absorbance measurements were obtained using the BMG Phera Star plate-reading spectrophotometer. Purified human DHODH was purchased from Proteros (cat. No. PR-0044). Chemicals were purchased from Sigma-Aldrich, Teknova, and Avanti Polar Lipids. Liquid handling was performed using Labcyte Echo and Formulatrix Tempest.

The next assay deals with MOLM-13 cells. The assay can be described thus: MOLM-13 cellular assay (CellTiter-Glo cell viability). Type of assay: cell-based. To be noted: 72 hours exposure, cell viability by CellTiter-Glo. How it is done: In Vitro Assay: MOLM-13 Cellular Assay
MOLM-13 cells were obtained from DSMZ and were maintained in RPMI 1640+Glutamax+25 mM HEPES (Invitrogen, catalog number 72400) supplemented with 10% heat inactivated fetal bovine serum (FBS; Invitrogen, catalog number 16140). The day prior to assay set-up, cells were pelleted, resuspended in fresh media, counted, and cells were plated at 0.4×10^6 cell/mL in a T150 flask. On the day of the assay, cells were pelleted, resuspend in fresh media, counted and seeded at 5,000 cells/well in white opaque 96-well tissue culture treated microplates (Perkin Elmer, catalog number 6005680). Cells were exposed to different concentrations of test compounds at 37° C., 5% CO2 for 72 hours immediately after seeding. Cell viability was acquired on a Perkin Elmer Envision 2104 multilabel reader using the CellTiter-Glo assay (Promega) according to the manufacturer's instructions.

T1 sequence (Q02127 whole entry): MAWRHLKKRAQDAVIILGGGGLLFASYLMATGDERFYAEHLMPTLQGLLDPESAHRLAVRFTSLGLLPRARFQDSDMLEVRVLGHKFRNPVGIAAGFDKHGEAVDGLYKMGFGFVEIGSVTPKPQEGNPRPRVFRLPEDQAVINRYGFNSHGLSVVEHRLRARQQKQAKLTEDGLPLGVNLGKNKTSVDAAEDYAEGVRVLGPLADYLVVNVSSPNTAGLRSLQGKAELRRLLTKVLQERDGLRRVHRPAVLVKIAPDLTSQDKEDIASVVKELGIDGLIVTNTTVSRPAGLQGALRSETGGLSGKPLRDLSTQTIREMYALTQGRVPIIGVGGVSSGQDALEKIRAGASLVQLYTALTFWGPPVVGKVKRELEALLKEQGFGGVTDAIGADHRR

As to `CCCCN1CN(c2c(F)cccc2Cl)C(=O)c2cc(F)c(-n3nc(CO)n(CC)c3=O)cc21` [Example 20, 1-Butyl-3-(2-chloro-6-fluorophenyl)-7-(4-ethyl-3-(hydroxymethyl)-5-oxo-4,5-dihydro-1H-1,2,4-triazol-1-yl)-6-fluoro-2,3-dihydroquinazolin-4(1H)-one], the half-maximal inhibitory concentration (IC50) on human DHODH stood at 5 nM; with MOLM-13 cells (Homo sapiens, MOLM-13, 72 h) it was 10.2 nM. For the compound `CCn1c(CO)nn(-c2cc3c(cc2F)C(=O)N(c2ccccc2Cl)CC3C(C)C)c1=O` (single isomer, unassigned) [Example 37, (R *)-2-(2-Chlorophenyl)-6-(4-ethyl-3-(hydroxymethyl)-5-oxo-4,5-dihydro-1H-1,2,4-triazol-1-yl)-7-fluoro-4-isopropyl-3,4-dihydroisoquinolin-1(2H)-one], the IC50 worked out at 20 nM at human DHODH and 15.5 nM in the assay with MOLM-13 cells. With `CCn1c(CO)nn(-c2cc3c(cc2F)C(=O)N(c2c(C)cnc(OC)c2Cl)CC3C(C)C)c1=O` (single isomer, unassigned) [Example 67, (R *)-2-(3-Chloro-2-methoxy-5-methylpyridin-4-yl)-6-(4-ethyl-3-(hydroxymethyl)-5-oxo-4,5-dihydro-1H-1,2,4-triazol-1-yl)-7-fluoro-4-isopropyl-3,4-dihydroisoquinolin-1(2H)-one], the 50% inhibitory concentration (IC50) at human DHODH is over 100 nM; in the assay on MOLM-13 cells, 351 nM. In the assay with MOLM-13 cells, `C=C(C)[C@H]1CN(c2c(C)ccnc2OC)C(=O)c2cc(F)c(-n3nc(CO)n(CC)c3=O)cc21` (single isomer, unassigned; atropisomer 1) [Example 52, Atropisomer 1, (R *)-6-(4-Ethyl-3-(hydroxymethyl)-5-oxo-4,5-dihydro-1H-1,2,4-triazol-1-yl)-7-fluoro-2-(2-methoxy-4-methylpyridin-3-yl)-4-(prop-1-en-2-yl)-3,4-dihydroisoquinol in-1 (2H)-one] had an IC50 of 105 nM. For the compound `C=C(C)[C@H]1CN(c2c(C)cnc(OC)c2C)C(=O)c2cc(F)c(-n3nc(CO)n(CC)c3=O)cc21` (single isomer, unassigned; atropisomer 1) [Example 55, Atropisomer 1, (R *)-6-(4-Ethyl-3-(hydroxymethyl)-5-oxo-4,5-dihydro-1H-1,2,4-triazol-1-yl)-7-fluoro-2-(2-methoxy-3,5-dimethylpyridin-4-yl)-4-(prop-1-en-2-yl)-3,4-dihydroisoquinolin-1(2H)-one], the IC50 at human DHODH is over 100 nM; with MOLM-13 cells, 1160 nM. Turning to `C=C(C)[C@@H]1CN(c2c(C)cnc(OC)c2C)C(=O)c2cc(F)c(-n3nc(CO)n(CC)c3=O)cc21` (single isomer, unassigned; atropisomer 2) [Example 56, Atropisomer 2, (S*)-6-(4-Ethyl-3-(hydroxymethyl)-5-oxo-4,5-dihydro-1H-1,2,4-triazol-1-yl)-7-fluoro-2-(2-methoxy-3,5-dimethylpyridin-4-yl)-4-(prop-1-en-2-yl)-3,4-dihydroisoquinolin-1(2H)-one], the IC50 was over 100 nM on human DHODH and 101 nM in the assay on MOLM-13 cells. Regarding `C=C(C)[C@@H]1CN(c2c(C)cc(C)nc2Cl)C(=O)c2cc(F)c(-n3nc(CO)n(CC)c3=O)cc21` (single isomer, unassigned; atropisomer 1) [Example 58, Atropisomer 1, (S*)-2-(2-Chloro-4,6-dimethylpyridin-3-yl)-6-(4-ethyl-3-(hydroxymethyl)-5-oxo-4,5-dihydro-1H-1,2,4-triazol-1-yl)-7-fluoro-4-(prop-1-en-2-yl)-3,4-dihydroisoquinolin-1(2H)-one], the results for the IC50 on human DHODH and with MOLM-13 cells were 4 nM and 2.93 nM, respectively. Take `CC[C@H](C)N1CN(c2c(F)cccc2Cl)C(=O)c2cc(F)c(-n3nc(CO)n(CC)c3=O)nc21` [Example 31, (S)-1-(sec-Butyl)-3-(2-chloro-6-fluorophenyl)-7-(4-ethyl-3-(hydroxymethyl)-5-oxo-4,5-dihydro-1H-1,2,4-triazol-1-yl)-6-fluoro-2,3-dihydropyrido[2,3-d]pyrimidin-4(1H)-one]: the IC50 on human DHODH worked out at 0.7 nM; in the assay with MOLM-13 cells (Homo sapiens, MOLM-13, 72 h), 0.962 nM. For `CCn1c(CO)nn(-c2ccc3c(c2)C(C(C)C(F)(F)F)CN(c2c(F)cccc2Cl)C3=O)c1=O` (stereo not drawn) [Example 75, 2-(2-Chloro-6-fluorophenyl)-6-(4-ethyl-3-(hydroxymethyl)-5-oxo-4,5-dihydro-1H-1,2,4-triazol-1-yl)-4-(1,1,1-trifluoropropan-2-yl)-3,4-dihydroisoquinolin-1(2H)-one], in the assay on MOLM-13 cells (Homo sapiens, MOLM-13, 72 h), half-maximal inhibition (IC50) was put at 16.1 nM.

Turning to `CCn1c(CO)nn(-c2cc3c(cc2F)C(=O)N(c2c(F)cncc2C#N)CN3C(C)C)c1=O` [Example 27, 4-(7-(4-Ethyl-3-(hydroxymethyl)-5-oxo-4,5-dihydro-1H-1,2,4-triazol-1-yl)-6-fluoro-1-isopropyl-4-oxo-1,4-dihydroquinazolin-3(2H)-yl)-5-fluoronicotinonitrile], the IC50 on human DHODH is 30 nM; in the assay with MOLM-13 cells (Homo sapiens, MOLM-13, 72 h) it was 48.1 nM.

In the case of `CCC(C)C1CN(c2c(F)cccc2Cl)C(=O)c2cc(F)c(-n3nc(CO)n(CC)c3=O)cc21` (single isomer, unassigned) [Example 70, (S*)-4-((RS)-sec-butyl)-2-(2-chloro-6-fluorophenyl)-6-(4-ethyl-3-(hydroxymethyl)-5-oxo-4,5-dihydro-1H-1,2,4-triazol-1-yl)-7-fluoro-3,4-dihydroisoquinolin-1(2H)-one], the half-inhibitory concentration (IC50) at human DHODH turned out to be 6 nM; in the assay on MOLM-13 cells (Homo sapiens, MOLM-13, 72 h), 14.5 nM.

Regarding `C=C(C)C1CN(c2c(Cl)ccnc2C)C(=O)c2cc(F)c(-n3nc(CO)n(CC)c3=O)cc21` (racemic) [Example 25, Racemic-2-(4-Chloro-2-methylpyridin-3-yl)-6-(4-ethyl-3-(hydroxymethyl)-5-oxo-4,5-dihydro-1H-1,2,4-triazol-1-yl)-7-fluoro-4-(prop-1-en-2-yl)-3,4-dihydroisoquinolin-1(2H)-one], the IC50 on human DHODH was over 100 nM; in the assay on MOLM-13 cells (Homo sapiens, MOLM-13, 72 h), 62.5 nM. On to `C=C(C)C1CN(c2ccccc2C)C(=O)c2cc(F)c(-n3nc(CO)n(CC)c3=O)cc21` (single isomer, unassigned) [Example 41, (S*)-6-(4-Ethyl-3-(hydroxymethyl)-5-oxo-4,5-dihydro-1H-1,2,4-triazol-1-yl)-7-fluoro-4-(prop-1-en-2-yl)-2-(o-tolyl)-3,4-dihydroisoquinolin-1(2H)-one], for which the figures for the IC50 on human DHODH and with MOLM-13 cells were 1 nM and 1.99 nM, respectively.

As to `C=C(C)C1CN(c2c(C)ccnc2Cl)C(=O)c2cc(F)c(-n3nc(CO)n(CC)c3=O)cc21` (single isomer, unassigned) [Example 46, (S*)-2-(2-Chloro-4-methylpyridin-3-yl)-6-(4-ethyl-3-(hydroxymethyl)-5-oxo-4,5-dihydro-1H-1,2,4-triazol-1-yl)-7-fluoro-4-(prop-1-en-2-yl)-3,4-dihydroisoquinolin-1(2H)-one], in the assay with MOLM-13 cells, it took 5.46 nM to reach half-maximal inhibition (IC50). `C=C(C)[C@H]1CN(c2c(C)cnc(OC)c2Cl)C(=O)c2cc(F)c(-n3nc(CO)n(CC)c3=O)cc21` (single isomer, unassigned; atropisomer 2) [Example 65, Atropisomer 2, (R*)-2-(3-Chloro-2-methoxy-5-methylpyridin-4-yl)-6-(4-ethyl-3-(hydroxymethyl)-5-oxo-4,5-dihydro-1H-1,2,4-triazol-1-yl)-7-fluoro-4-(prop-1-en-2-yl)-3,4-dihydroisoquinolin-1(2H)-one] gave an IC50 in the assay on MOLM-13 cells of 20.7 nM.

`CCn1c(CO)nn(-c2ccc3c(c2)C(C(C)C(F)(F)F)CN(c2ccccc2F)C3=O)c1=O` (stereo not drawn) [Example 74, 6-(4-Ethyl-3-(hydroxymethyl)-5-oxo-4,5-dihydro-1H-1,2,4-triazol-1-yl)-2-(2-fluorophenyl)-4-(1,1,1-trifluoropropan-2-yl)-3,4-dihydroisoquinolin-1(2H)-one] had an IC50 with MOLM-13 cells (Homo sapiens, MOLM-13, 72 h) of 102 nM. Turning to `C=C(C)C1CN(c2c(C)ccnc2Cl)C(=O)c2cc(F)c(-n3nc(CO)n(CC)c3=O)cc21` (single isomer, unassigned) [Example 47, (R *)-2-(2-Chloro-4-methylpyridin-3-yl)-6-(4-ethyl-3-(hydroxymethyl)-5-oxo-4,5-dihydro-1H-1,2,4-triazol-1-yl)-7-fluoro-4-(prop-1-en-2-yl)-3,4-dihydroisoquinolin-1 (2H)-one], in the assay on MOLM-13 cells, the IC50 was found to be 298 nM. `C=C(C)[C@H]1CN(c2c(C)ccnc2OC)C(=O)c2cc(F)c(-n3nc(CO)n(CC)c3=O)cc21` (single isomer, unassigned; atropisomer 2) [Example 53, Atropisomer 2, (R*)-6-(4-Ethyl-3-(hydroxymethyl)-5-oxo-4,5-dihydro-1H-1,2,4-triazol-1-yl)-7-fluoro-2-(2-methoxy-4-methylpyridin-3-yl)-4-(prop-1-en-2-yl)-3,4-dihydroisoquinolin-1(2H)-one] showed an IC50 in the assay on MOLM-13 cells of 3.36 nM. As to `CCn1c(CO)nn(-c2cc3c(cc2F)C(=O)N(c2c(F)cccc2Cl)CN3C(C)C)c1=O` [Example 1, 3-(2-Chloro-6-fluorophenyl)-7-(4-ethyl-3-(hydroxymethyl)-5-oxo-4,5-dihydro-1H-1,2,4-triazol-1-yl)-6-fluoro-1-isopropyl-2,3-dihydroquinazolin-4(1H)-one], in the assay with MOLM-13 cells (Homo sapiens, MOLM-13, 72 h), the concentration for half-maximal inhibition (IC50) is 0.85 nM.

The record behind these values is patent publication US20220081422A1 (Janssen Biotech, Inc., priority 2019, published 2022).
